Results on eight molecules are retold here after patent US4879313A, “Novel platelet-aggregation inhibitors” (Mosanto Company, priority 1988, dated 1989).

SMILES strings stand for the structures.

In general, IC50 refers to the concentration that inhibits the measured activity by half. In general, ED50 refers to the dose at which the effect has come halfway, by size or by number of responders.

Assay [1] concerns ADP-induced platelet aggregation in human PRP. As to the kind of experiment: In-vitro human platelet aggregation in PRP (ADP-induced). It counts as cell-based. Particulars: for HUMAN PRP % INHIBITION AT 10^-4 M: compound at 10^-4 M, human platelet-rich plasma; for IC50: human PRP, linear regression of the dose response curve. How it is done:
In one assay, platelet aggregation is examined in platelet-rich plasma which also is rich in fibrinogen and other plasma proteins. The % inhibition is determined for the test compound by comparing the extent of platelet aggregation in the presence and absence of the test compound.
Healthy male or female donors who have not taken any antiplatelet drugs for at least 2 weeks were fasted for 8 hours prior to drawing blood; then 30 ml whole blood was collected using a butterfly needle and 30 cc plastic syringe with 3 ml of 0.129 M buffered sodium citrate (3.8%). The syringe was rotated carefully as blood was drawn to mix the citrate. Platelet-richplasma (PRP) was prepared by centrifugation at 100×g for 10 minutes at room temperature, allowing the centrifuge to coast to a stop without braking. The PRP was removed from the blood with a plastic pipette and placed in a plastic capped, 50 ml Corning conical sterile centrifuge tube which was held at room temperature. Platelet poor plasma (PPP) was prepared by centrifuging the remaining blood at 2000×g for 15 minutes at room temperature allowing the centrifuge to coast to a stop without braking. The PRP was adjusted with PPP to a count of 2-3×10^8 platelets per ml. 400 μl of the PRP preparation and 50 μl of the compound to be tested or saline were preincubated for 1 minute at 37° C. in a Payton aggregometer (Payton Scientific, Inc., Buffalo, N.Y.). 50 μl of adenosine 5'-diphosphate (ADP) (50 μM) was added to the cuvettes and the aggregation was monitored for 1 minute. All compounds are tested in duplicate. Results are calculated as follows: Percent of control=[(maximal OD minus initial OD of compound) divided by (maximal OD minus initial OD of control saline)]×100. The % inhibition=100-(percent of control).
The compounds tested and their activity results in % inhibition at 10^-4 M and median inhibitory concentration (IC50) were as recorded in Table 1.

For assay [2], the system named is collagen induced rat thrombocytopenia (platelet aggregation). Put plainly: In vivo rat thrombocytopenia (collagen induced). Here is the method:
In another test, the effect of the peptide mimetic compound on collagen induced thrombocytopenia (platelet aggregation) is measured in vivo in the rat. Again, the % inhibition is determined for the test compound and compared against a saine or ethanol vehicle in the absence of the test compound.
Male rats [Charles River, CRL:CD(SD), 400-450 g] were used. The rats were anesthetized with Na pentabarbital (65 mg/kg, Vet Labs, Limited, lnc., Lenexa, Kan.). Two incisions were made to expose both jugular veins. Using an infusion pump (Harvard Apparatus, South Natick, Mass.) and a 5 cc syringe with a 19 g. butterfly, the test compound or vehicle was infused into the left jugular vein at a rate of 0.39 ml/min for 3 min. After 2 min of compound/vehicle infusion, collagen (60 μg/kg) (Helena Laboratories,Beaumont, Tex.) was injected with a one ml syringe into the right jugular vein. The body cavity was opened and the vena cava was exposed for blood sampling. One min after the collagen injection, compound infusion was stopped and blood was sampled from the vena cava (within 30 sec) with a 3 cc syringe containing […] of 4.5% EDTA/Tris (0.1 M) (pH 7.35) plus 150 μM indomethacin. Platelet rich plasma (PRP) was prepared by centrifuging the blood at 126×g for 10 min. Five μ1 of PRP was counted in 20 ml of Isoton®III in a Coulter Counter.
Percent inhibition of collagen induced aggregation was calculated by comparison of the platelet counts in animals that were treated with test compound and collagen (a) with platelet counts for animals receiving no collagen (non-aggregated control) and (b) with platelet counts for animals receiving vehicle and collagen (aggregated control).
The % inhibition of platelet aggregation in vivo and the median effective dose (ED50) of the test compounds are set forth in the following Table II.

As for `N=C(N)NCCCCCCCC(=O)N[C@@H](CC(=O)O)C(=O)N[C@@H](Cc1ccc(-c2ccccc2)cc1)C(N)=O` [8-guanidino-octanoyl-Asp--(4-phenyl)-phenylalanine amide], in assay [1], the “HUMAN PRP % INHIBITION AT 10^-4 M” value is on record as 100% and the midpoint of inhibition, the IC50, lay at 17 µM.
With `COc1ccc(CCNC(=O)[C@H](CC(=O)O)NC(=O)CNCCCCNC(=N)N)cc1` [N--(4-guanidinobutyl)-Gly--Asp--2-(4-methoxy-phenyl)ethyl amide], the “HUMAN PRP % INHIBITION AT 10^-4 M” value in assay [1] stood at 0%.
For the molecule `COc1ccc(CCNC(=O)[C@H](CC(=O)O)NC(=O)CCCCCCCCNC(=N)N)cc1` [9-guanidino-nonanoyl-Asp-2-(4-methoxyphenyl)ethyl amide], in assay [1], the “HUMAN PRP % INHIBITION AT 10^-4 M” value came to 100% and the IC50 came out at 27 µM.
The matching figures for `COc1ccc(CCNC(=O)[C@H](CC(=O)O)NC(=O)CCCCCCCCCNC(=N)N)cc1` [10-guanidino-decanoyl-Asp--2-(4-methoxy-phenyl)ethyl amide]: 65% and 70 µM.
As to `COc1ccc(CCNC(=O)[C@H](CC(=O)O)NC(=O)CCCCCCCNC(=N)N)cc1OC` [8-guanidino-octanoyl-Asp--2-(3,4-dimethoxy-phenyl)ethyl amide], in assay [1], the “HUMAN PRP % INHIBITION AT 10^-4 M” value turned out to be 100% and the IC50 was 12 µM.
Take `COc1ccc(CCNC(=O)[C@H](CC(=O)O)NC(=O)CCCCCCNC(=N)N)cc1` [7-guanidino-heptanoyl-Asp--2-(4-methoxy-phenyl)ethyl amide]: in assay [1], the “HUMAN PRP % INHIBITION AT 10^-4 M” value was 43%.
`COc1ccc(CNC(=O)[C@H](CC(=O)O)NC(=O)CCCCCCCNC(=N)N)cc1` [8-guanidino-octanoyl-Asp--4-methoxybenzyl amide]: in assay [1], the “HUMAN PRP % INHIBITION AT 10^-4 M” value amounted to 100% and the IC50 worked out at 33 µM.
As to `COc1ccc(CCNC(=O)C(CC(=O)O)NC(=O)CCCCCCCNC(=N)N)cc1` (centres unmarked) [8-guanidino-octanoyl-Asp-2-(4-methoxyphenyl)ethyl amide], the “HUMAN PRP % INHIBITION AT 10^-4 M” value in assay [1] stood at 100%. Also, in assay [2] (1 mg/kg, infusion into jugular vein, collagen 60 μg/kg, rat), the “% INHIBITION AT 1 mg/kg” value stood at 67.05%. Moreover, in assay [2] (in vivo thrombocytopenia assay, fraction of reference dose), the “effective dose relative to that required for equivalent inhibitory activity by Arg-Gly-Asp-(O-methyl-Tyr)-NH2” value was “about one eighth”. Further, in assay [2] (infusion into jugular vein, collagen induced thrombocytopenia, rat), the ED50 was determined as 0.07 mg/kg. In addition, the “ED50 (orally active in rats)” value in assay [2] (oral, rats) was determined as 7.8 mg/kg.
